{
  "source": "patent US12097202B2",
  "about": "(Kadmon Corporation, LLC, priority 2022, dated 2024)",
  "assay": "Solubility of belumosudil mesylate",
  "type": "physicochemical",
  "note": "Where a name gives a salt, the structure may show the parent alone.",
  "data": [
    {"smiles": "CC(C)NC(=O)COc1cccc(-c2nc(Nc3ccc4[nH]ncc4c3)c3ccccc3n2)c1", "note": "[Belumosudil mesylate, 2-{3-[4-(1H-indazol-5-ylamino)-2-quinazolinyl]phenoxy}-N-(propan-2-yl) acetamide methanesulfonate (1:1)]", "values": [
      {"measurement": "solubility in DMSO", "setting": "DMSO", "result": "soluble"},
      {"measurement": "solubility in methanol and DMF", "setting": "methanol and DMF", "result": "slightly soluble"},
      {"measurement": "solubility in water", "setting": "water", "result": "practically insoluble"}
    ]}
  ]
}
